The target in assay [1] is FGFR3 (Homo sapiens, UniProt P22607). In words: BaF3 panel of […] receptor tyrosine kinases, […] inhibition at […]. The note with it: BaF3, read-out: % inhibition at 100 nM. Type of assay: cell-based.
Assay [2] deals with vascular endothelial growth factor receptor 1 (Homo sapiens, UniProt P17948). The description is as above. Type of assay: cell-based. As to conditions: BaF3, read-out: % inhibition at 100 nM.
Assay [3] addresses T1, MER (Homo sapiens, UniProt Q12866).
T1 sequence (Q12866 21-999): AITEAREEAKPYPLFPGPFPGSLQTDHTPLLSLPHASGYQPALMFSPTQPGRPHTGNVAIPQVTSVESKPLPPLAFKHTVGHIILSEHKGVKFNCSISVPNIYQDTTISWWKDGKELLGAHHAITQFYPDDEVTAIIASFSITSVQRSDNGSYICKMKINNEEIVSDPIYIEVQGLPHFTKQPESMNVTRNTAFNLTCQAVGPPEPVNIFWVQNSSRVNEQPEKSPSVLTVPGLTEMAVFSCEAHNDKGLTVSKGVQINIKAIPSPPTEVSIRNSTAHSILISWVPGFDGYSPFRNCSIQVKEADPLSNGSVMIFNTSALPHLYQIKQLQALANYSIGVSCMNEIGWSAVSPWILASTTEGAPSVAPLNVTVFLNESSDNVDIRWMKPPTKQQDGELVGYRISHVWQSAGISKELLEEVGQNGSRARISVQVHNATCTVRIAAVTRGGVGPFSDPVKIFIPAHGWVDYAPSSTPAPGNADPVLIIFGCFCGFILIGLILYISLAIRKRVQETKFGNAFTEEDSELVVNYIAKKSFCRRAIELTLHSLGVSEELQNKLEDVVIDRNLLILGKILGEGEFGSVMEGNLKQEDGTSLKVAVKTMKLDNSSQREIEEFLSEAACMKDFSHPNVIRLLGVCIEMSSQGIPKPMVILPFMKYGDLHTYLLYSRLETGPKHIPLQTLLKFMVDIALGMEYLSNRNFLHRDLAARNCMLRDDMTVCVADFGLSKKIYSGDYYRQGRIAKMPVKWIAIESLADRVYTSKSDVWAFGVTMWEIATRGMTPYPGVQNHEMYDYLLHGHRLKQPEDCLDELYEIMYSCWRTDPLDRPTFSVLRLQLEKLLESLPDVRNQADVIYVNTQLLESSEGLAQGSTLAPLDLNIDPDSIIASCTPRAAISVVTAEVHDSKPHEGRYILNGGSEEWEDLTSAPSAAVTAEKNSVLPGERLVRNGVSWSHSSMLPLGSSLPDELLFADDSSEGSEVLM
Kind of assay: radiometric kinase assay at ATP Km. Type of assay: biochemical.

Structures are written as SMILES.

FGFR3, sequence (P22607 23-806): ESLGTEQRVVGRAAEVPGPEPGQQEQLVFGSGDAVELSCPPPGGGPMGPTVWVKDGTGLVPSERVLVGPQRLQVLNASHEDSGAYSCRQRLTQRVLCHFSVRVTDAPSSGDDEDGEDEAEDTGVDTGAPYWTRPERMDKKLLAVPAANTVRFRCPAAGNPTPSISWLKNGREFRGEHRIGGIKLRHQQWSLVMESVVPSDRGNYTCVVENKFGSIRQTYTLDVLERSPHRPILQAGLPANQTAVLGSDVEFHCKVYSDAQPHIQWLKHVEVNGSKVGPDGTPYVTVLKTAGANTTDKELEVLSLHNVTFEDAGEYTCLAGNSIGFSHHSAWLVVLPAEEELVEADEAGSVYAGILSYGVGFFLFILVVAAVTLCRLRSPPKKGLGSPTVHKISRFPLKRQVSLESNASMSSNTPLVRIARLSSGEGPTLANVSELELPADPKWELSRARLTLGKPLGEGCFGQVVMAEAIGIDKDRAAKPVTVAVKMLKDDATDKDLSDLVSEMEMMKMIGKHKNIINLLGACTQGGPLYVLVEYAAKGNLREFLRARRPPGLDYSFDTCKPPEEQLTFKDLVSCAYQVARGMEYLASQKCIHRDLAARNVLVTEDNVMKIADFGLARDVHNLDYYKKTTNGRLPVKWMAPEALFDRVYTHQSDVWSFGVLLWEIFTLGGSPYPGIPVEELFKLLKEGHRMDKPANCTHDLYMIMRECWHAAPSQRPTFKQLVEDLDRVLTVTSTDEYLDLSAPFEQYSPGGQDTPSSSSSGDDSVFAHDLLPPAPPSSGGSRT
vascular endothelial growth factor receptor 1, sequence (P17948 27-1338): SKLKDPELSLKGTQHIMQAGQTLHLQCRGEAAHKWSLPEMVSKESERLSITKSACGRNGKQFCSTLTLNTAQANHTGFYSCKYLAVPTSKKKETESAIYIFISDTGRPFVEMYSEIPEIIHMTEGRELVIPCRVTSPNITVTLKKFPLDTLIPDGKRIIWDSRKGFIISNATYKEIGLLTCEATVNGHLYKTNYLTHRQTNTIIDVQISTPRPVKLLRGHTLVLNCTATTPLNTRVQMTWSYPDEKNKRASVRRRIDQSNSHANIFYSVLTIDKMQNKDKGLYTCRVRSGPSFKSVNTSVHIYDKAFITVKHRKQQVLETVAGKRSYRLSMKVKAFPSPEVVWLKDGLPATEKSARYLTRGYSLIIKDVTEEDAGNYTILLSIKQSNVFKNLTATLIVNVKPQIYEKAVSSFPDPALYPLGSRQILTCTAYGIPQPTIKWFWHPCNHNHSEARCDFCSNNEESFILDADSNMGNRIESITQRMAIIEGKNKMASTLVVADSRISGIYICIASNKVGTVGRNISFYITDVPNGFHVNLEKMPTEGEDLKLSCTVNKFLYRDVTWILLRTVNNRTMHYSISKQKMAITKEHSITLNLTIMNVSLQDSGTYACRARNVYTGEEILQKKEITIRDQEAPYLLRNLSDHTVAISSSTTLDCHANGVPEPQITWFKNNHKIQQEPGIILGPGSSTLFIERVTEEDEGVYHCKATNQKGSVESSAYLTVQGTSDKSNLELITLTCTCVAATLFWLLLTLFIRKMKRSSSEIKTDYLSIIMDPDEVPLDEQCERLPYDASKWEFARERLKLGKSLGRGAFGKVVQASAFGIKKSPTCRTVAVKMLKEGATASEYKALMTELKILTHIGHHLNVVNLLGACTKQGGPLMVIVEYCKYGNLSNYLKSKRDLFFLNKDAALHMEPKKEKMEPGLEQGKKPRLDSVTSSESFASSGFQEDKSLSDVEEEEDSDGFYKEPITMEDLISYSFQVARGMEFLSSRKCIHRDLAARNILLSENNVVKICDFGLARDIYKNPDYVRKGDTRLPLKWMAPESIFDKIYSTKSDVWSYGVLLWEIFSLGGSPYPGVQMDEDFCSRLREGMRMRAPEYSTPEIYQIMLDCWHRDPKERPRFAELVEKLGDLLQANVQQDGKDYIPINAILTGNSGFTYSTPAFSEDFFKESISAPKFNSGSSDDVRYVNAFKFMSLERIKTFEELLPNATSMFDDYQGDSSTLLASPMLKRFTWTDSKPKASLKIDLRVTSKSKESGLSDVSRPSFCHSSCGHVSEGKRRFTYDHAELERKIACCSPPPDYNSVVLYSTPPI

As a reminder, the inhibition is the change of the read-out against control, counted positive when it falls. What is called IC50 is the midpoint of a concentration-inhibition curve. Low readings indicate higher potency, high ones lower potency. For `Nc1ncc(-c2cnn(C3CCNCC3)c2)cc1-c1nnc(CC2CC2)o1` [SLC-391, 3-(5-(cyclopropylmethyl)-1,3,4-oxadiazole-2-yl)-5-(1-(piperidine-4-yl)-1H-pyrazole-4-yl)pyridine-2-amine], the inhibition at 0.1 µM in assay [1] and in assay [2] was 60% throughout. The compound further had an IC50 in assay [3] of 0.044 µM.

The record behind these values is article PMC8462401 (Blood, 2021).
